Experimental data: PubChem BioAssay (NCI)
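Tested at 5 concentrations; 48 h exposure; 96-well plates; endpoints linearly interpolated, else capped at highest concentration. Definition used: TGI = concentration required for complete inhibition of growth.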

Key:
Assay in all cases: NCI tumour cell line growth inhibition, 48 h
786-0 renal = test system: 786-0 renal
ACHN renal = test system: ACHN renal
BT-549 breast = test system: BT-549 breast
COLO 205 colon = test system: COLO 205 colon
HCC-2998 colon = test system: HCC-2998 colon
HCT-116 colon = test system: HCT-116 colon
HL-60(TB) leukemia = test system: HL-60(TB) leukemia
HOP-92 NSCLC = test system: HOP-92 NSCLC
HS 578T breast = test system: HS 578T breast
K-562 leukemia = test system: K-562 leukemia
MDA-N = test system: MDA-N
MOLT-4 leukemia = test system: MOLT-4 leukemia
NCI-H460 lung = test system: NCI-H460 lung
NCI/ADR-RES ovarian = test system: NCI/ADR-RES ovarian
OVCAR-3 ovarian = test system: OVCAR-3 ovarian
OVCAR-8 ovarian = test system: OVCAR-8 ovarian
RPMI-8226 leukemia = test system: RPMI-8226 leukemia
SK-MEL-5 melanoma = test system: SK-MEL-5 melanoma
SNB-19 CNS = test system: SNB-19 CNS
UO-31 renal = test system: UO-31 renal

| Structure (SMILES) | TGI (786-0 renal) [µM] | TGI (ACHN renal) [µM] | TGI (BT-549 breast) [µM] | TGI (COLO 205 colon) [µM] | TGI (HCC-2998 colon) [µM] | TGI (HCT-116 colon) [µM] | TGI (HL-60(TB) leukemia) [µM] | TGI (HOP-92 NSCLC) [µM] | TGI (HS 578T breast) [µM] | TGI (K-562 leukemia) [µM] | TGI (MDA-N) [µM] | TGI (MOLT-4 leukemia) [µM] | TGI (NCI-H460 lung) [µM] | TGI (NCI/ADR-RES ovarian) [µM] | TGI (OVCAR-3 ovarian) [µM] | TGI (OVCAR-8 ovarian) [µM] | TGI (RPMI-8226 leukemia) [µM] | TGI (SK-MEL-5 melanoma) [µM] | TGI (SNB-19 CNS) [µM] | TGI (UO-31 renal) [µM] |
| --- | --- | --- | --- | --- | --- | --- | --- | --- | --- | --- | --- | --- | --- | --- | --- | --- | --- | --- | --- | --- |
| CC1OC(OCC2OC(Oc3ccc(C4CC(=O)c5c(O)cc(O)cc5O4)cc3O)C(O)C(O)C2O)C(O)C(O)C1O (configuration not stated) | > 100 | > 100 | > 100 | > 100 | > 100 | > 100 | > 100 | > 100 | > 100 | > 100 | > 100 | > 100 | > 100 | > 100 | > 100 | > 100 | > 100 | > 100 | > 100 | > 100 |
| COc1ccc(/C=C2\CCc3cc(OC)c(OC)cc3C2=O)cc1 | > 10 | > 10 | > 10 | > 10 | > 10 | > 10 | > 10 | > 10 | > 10 | > 10 | > 10 | > 10 | > 10 | > 10 | > 10 | > 10 | > 10 | > 10 | > 10 | > 10 |
| CC(C)NC(=O)OCc1c(COC(=O)NC(C)C)c(-c2cc[n+](COC(=O)C(C)C)cc2)n2c1CCC2 | > 100 | > 82.7 | > 100 | > 100 | > 100 | > 100 | > 77.7 | > 100 | > 100 | > 100 | > 100 | 99.2 | > 100 | > 100 | > 100 | > 100 | > 100 | > 100 | > 100 | > 100 |
| CC(=O)Oc1ccc(/C=C/C(=O)OCCOC(=O)/C=C/c2ccc(OC(C)=O)c(OC(C)=O)c2)cc1OC(C)=O | 22.3 | 35.8 | 53 | 28.2 | 28.6 | 20.9 | > 44.6 | 26.7 | 62.7 | > 100 | 23.5 | > 38.5 | 32 | 16.3 | > 28.6 | 35 | 24.5 | 20.1 | > 77.9 | 15.3 |
| CCCCCC(=Nc1n[nH]nc1C(N)=O)OCC | > 100 | > 100 | > 100 | > 100 | > 100 | > 100 | > 100 | > 100 | > 100 | > 100 | > 100 | > 100 | > 100 | > 100 | > 100 | > 100 | > 100 | > 100 | > 100 | > 100 |
| COCOc1c(C(OCOC)c2cnc(Sc3ccccc3)n2C)ccc(OC)c1OC (configuration not stated) | > 100 | > 100 | > 100 | – | > 100 | > 100 | > 100 | > 100 | > 100 | > 100 | > 100 | > 100 | > 100 | > 100 | > 100 | > 100 | > 100 | > 100 | > 100 | > 100 |
| O=c1c2cc(S(=O)(=O)Nc3ccc(Cl)cc3Cl)ccc2ncn1NS(=O)(=O)c1cccc2ccccc12 | > 100 | > 100 | 80.6 | > 100 | > 100 | > 100 | 37.5 | 81.4 | > 100 | > 100 | > 100 | 85.5 | > 100 | > 100 | > 100 | > 100 | > 100 | – | > 100 | 62.3 |
| CCc1ccc(/C=C/C(=O)C2CN(CC)CCC2(O)/C=C/c2ccc(CC)cc2)cc1 (configuration not stated) | 3.22 | 3.68 | 11.2 | 6.21 | 3.99 | 3.25 | > 24.6 | 5.33 | 8.67 | 8.94 | 10.6 | 6.03 | 7.26 | 12.4 | 3.3 | 11.6 | 5.24 | 11.2 | 23.3 | 11.6 |
| Nc1nnc2oc3ccc4ccccc4c3cc1-2 | > 100 | 80.1 | > 100 | 56.8 | 77.4 | > 100 | 67.9 | > 100 | > 100 | > 100 | > 100 | > 100 | > 100 | > 100 | > 100 | > 100 | > 100 | > 100 | > 100 | > 100 |
| Cc1cc2c(cc1C)C(=O)/C(=C/c1ccccc1C(=O)O)C2 | > 100 | > 100 | > 100 | 36.3 | > 100 | > 100 | > 100 | > 100 | > 100 | > 100 | > 100 | > 100 | > 100 | > 100 | > 100 | > 100 | 75.2 | > 100 | > 100 | > 100 |
| Cc1cccc(C)c1N1C(=O)C2c3[nH]c4ccccc4c3C3CCC(C(C)(C)C)CC3C2C1=O (configuration not stated) | 20.8 | 33.7 | 38.2 | 24 | 14.9 | 21.3 | 35.5 | 23.9 | 44 | 32.7 | 24.4 | > 100 | – | 48.8 | 30.3 | 37 | > 100 | 28.6 | > 100 | 26 |
| COc1ccc(C(=C2C(=O)N(c3ccccc3)C(=O)C2=C(C)C)c2ccc(OC)cc2)cc1 | 23.7 | > 31.7 | > 39.2 | > 33.3 | > 52 | > 51.1 | 6.32 | > 31.6 | > 39 | > 100 | 4.11 | > 39.7 | > 100 | > 100 | > 100 | > 32.1 | > 43.7 | > 51.4 | > 56.2 | > 31 |
| COC(=O)N/N=C(/c1nc2ccc([N+](=O)[O-])cc2[nH]c1=O)C(O)c1ccc(OC)c(OC)c1 (configuration not stated) | > 100 | > 100 | > 100 | > 76.9 | > 100 | > 100 | > 100 | > 100 | > 100 | > 100 | > 100 | > 100 | > 100 | > 100 | > 100 | > 100 | > 74.5 | > 78.7 | > 100 | > 100 |
| Cn1cnc2c1c(=O)n(CCNCCO)c(=O)n2C | > 100 | > 100 | > 100 | > 100 | > 100 | > 100 | > 100 | > 100 | > 100 | > 100 | > 100 | > 100 | > 100 | > 100 | > 100 | > 100 | > 100 | > 100 | > 100 | > 100 |
| NCCNCCCNC(=O)c1cc(-c2ccccc2)nc2ccccc12 | 61.8 | > 100 | > 100 | 30.9 | 34.4 | > 100 | > 100 | 55.4 | > 100 | 54.9 | 66.8 | 52.3 | > 100 | > 100 | > 100 | > 100 | > 100 | 30.5 | > 100 | > 100 |
| C=C1CC(C)(COc2ccc3c(C)cc(=O)oc3c2)OC1=O (configuration not stated) | 5.65 | 7.37 | 7.56 | 2.86 | 9.5 | 4.72 | 3.94 | 3.25 | 31.9 | > 31.9 | 8.29 | 4.2 | 20.8 | 17.6 | 11 | 14.8 | 2.57 | 3.37 | 28.4 | 18.9 |
| CNN1C(=O)c2c(C)c(C)c(C#N)c(N)c2C1=O | > 100 | > 100 | > 100 | > 100 | > 100 | > 100 | > 100 | > 100 | > 100 | > 100 | > 100 | > 100 | > 100 | > 100 | > 100 | > 100 | > 100 | > 100 | > 100 | > 100 |
